Reference: PubChem BioAssay (NCI)
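The compound was tested at five concentrations on cells cultured in 96-well plates, with a 48-hour exposure period. GI50 = concentration required for 50% inhibition of growth. The concentration for full growth arrest is given as TGI.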

Columns and labels:
Test in all cases: NCI-60 cell line screen, 48 h
A498 renal = system: A498 renal
HOP-62 NSCLC = system: HOP-62 NSCLC
MDA-MB-231 breast = system: MDA-MB-231 breast
NCI-H522 lung = system: NCI-H522 lung
RXF 393 renal = system: RXF 393 renal
SF-268 CNS = system: SF-268 CNS
SK-OV-3 ovarian = system: SK-OV-3 ovarian
SW-620 colon = system: SW-620 colon
TK-10 renal = system: TK-10 renal
UACC-257 melanoma = system: UACC-257 melanoma

Row | Structure (SMILES) | GI50 (A498 renal) | TGI (A498 renal) | GI50 (HOP-62 NSCLC) | TGI (HOP-62 NSCLC) | GI50 (MDA-MB-231 breast) | TGI (MDA-MB-231 breast) | GI50 (NCI-H522 lung) | TGI (NCI-H522 lung) | GI50 (RXF 393 renal) | TGI (RXF 393 renal) | GI50 (SF-268 CNS) | TGI (SF-268 CNS) | GI50 (SK-OV-3 ovarian) | TGI (SK-OV-3 ovarian) | GI50 (SW-620 colon) | TGI (SW-620 colon) | GI50 (TK-10 renal) | TGI (TK-10 renal) | GI50 (UACC-257 melanoma) | TGI (UACC-257 melanoma)
1 | CC[C@H](C)[C@H](NC(=O)C12CC(NC(C)=O)(C1)C2)C(=O)N(C)[C@H](C[C@@H](OC(C)=O)c1nc(C(=O)N[C@@H](Cc2ccccc2)C[C@H](C)C(=O)OC)cs1)C(C)C | 0.234 µM | 1.58 µM | 0.473 µM | > 10.4 µM | 0.439 µM | > 16.7 µM | 0.0551 µM | 0.45 µM | 0.359 µM | > 16.7 µM | 0.809 µM | > 16.7 µM | 0.394 µM | > 10.9 µM | 0.0854 µM | > 16.7 µM | > 4.97 µM | > 16.7 µM | 7 µM | > 16.7 µM
2 | Cc1ccc(-c2cc(/C=N/O)on2)cc1 | 41.3 µM | > 100 µM | > 100 µM | > 100 µM | > 100 µM | > 100 µM | 62.4 µM | > 100 µM | > 100 µM | > 100 µM | > 100 µM | > 100 µM | > 100 µM | > 100 µM | 65.7 µM | > 100 µM | 63.8 µM | > 100 µM | 67.5 µM | > 100 µM
3 | CN1CCN(c2ccc3nc4c(nc3c2C(F)(F)F)C(=O)c2ncccc2C4=O)CC1 | 1.94 µM | 3.63 µM | 1.07 µM | 2.92 µM | 2.54 µM | 7 µM | 1.16 µM | 3.55 µM | 1.46 µM | 3.15 µM | 1.66 µM | 4.13 µM | 1.98 µM | 4.98 µM | 1.42 µM | 3.52 µM | 2.21 µM | 5.3 µM | 0.873 µM | 2.4 µM
4 | Cc1cc2c(C(C)C)c(O)c(O)c(C=O)c2c(O)c1-c1c(C)cc2c(C(C)C)c(O)c(O)c(C=O)c2c1O (tested in a mixture with another compound) | 1.29 µM | 2.92 µM | 0.988 µM | 2.9 µM | 2.11 µM | 5.8 µM | 0.584 µM | 2.44 µM | 1 µM | 2.52 µM | 1.06 µM | 3.26 µM | 1.78 µM | 9.33 µM | 0.806 µM | 2.33 µM | 0.546 µM | 2.93 µM | 1.79 µM | 4.12 µM
5 | CN(C)CCOc1nc2ccccc2c2c1-c1ccc(Cl)cc1C2=O | 1.19 µM | 2.87 µM | 1.21 µM |  | 1.1 µM | 3 µM | 0.573 µM | 2.09 µM | 1.07 µM | 2.55 µM | 0.577 µM | 2.32 µM | 1.76 µM | > 37 µM | 0.34 µM | 1.53 µM | 1.36 µM | 3.18 µM | 1.25 µM | 2.97 µM
6 | Cc1cccnc1CNC1CC(NCc2ncccc2C)CC(NCc2ncccc2C)C1 (centres undefined) | 1.78 µM | 3.3 µM | 1.96 µM | 4.52 µM | 1.6 µM | 3.56 µM | 2.69 µM | 12.2 µM | 1.92 µM | 3.9 µM | 1.99 µM | 4.05 µM | 1.98 µM | 3.73 µM | 2.04 µM | 5.8 µM | 3.49 µM | 11.3 µM | 1.74 µM | 3.58 µM
7 | C=C=[CH][Sn]([c]1ccccc1)([c]1ccccc1)[c]1ccccc1 | 1.24 µM | 2.56 µM | 2.45 µM | 5.26 µM | 1.79 µM | 3.36 µM | 1.36 µM | 2.85 µM | 1.07 µM | 2.28 µM | 1.69 µM | 3.66 µM | 2.15 µM | 4.73 µM | 0.821 µM | 2.17 µM | 1.65 µM | 3.1 µM | 1.63 µM | 3.05 µM
8 | CCNCCNc1cc(-c2cccc(C(F)(F)F)c2)c(C#N)c2nc3ccccc3n12 | 1.64 µM | 3.08 µM | 2.13 µM | 3.8 µM | 1.67 µM | 3.29 µM | 1.86 µM | 3.46 µM | 1.49 µM | 3.1 µM | 1.57 µM | 3.12 µM | 2 µM | 3.49 µM | 0.39 µM | 1.51 µM | 2.14 µM | 3.69 µM | 1.81 µM | 3.26 µM
9 | N#CC[C@H](C1CCCC1)n1cc(-c2ncnc3[nH]ccc23)cn1 | 13.3 µM | 53.8 µM | 17.2 µM | > 100 µM | 23.9 µM | > 100 µM | 21 µM | 57.9 µM | 4.06 µM | 27.2 µM | 16.8 µM | > 77.9 µM | 24.7 µM | > 88 µM | 12.5 µM | > 96.6 µM | 13.2 µM | > 100 µM | 44.2 µM | > 100 µM
10 | CS(=O)(=O)c1nc(Cl)c(Cl)c(C#N)c1Cl |  | 35.3 µM |  | 35.6 µM |  | 3.24 µM |  | 1.28 µM |  | 3.07 µM |  | 21.9 µM |  | 10.7 µM |  | 3.13 µM |  | 5.91 µM |  | 5.52 µM
11 | Nc1cccc2nsnc12 |  | > 100 µM |  | > 100 µM |  | > 100 µM |  | > 52.2 µM |  | > 100 µM |  | > 100 µM |  | > 100 µM |  | > 100 µM |  | > 100 µM |  | > 100 µM
12 | NC(=O)NC(=O)C1CCCCC1C(=O)O (centres undefined) |  | > 100 µM |  | > 100 µM |  | > 100 µM |  | > 100 µM |  | > 100 µM |  | > 100 µM |  | > 100 µM |  | > 100 µM |  | > 100 µM |  | > 100 µM
13 | CCCCCCC1N=C(N)N=C(N)N1c1ccc(Cl)cc1 (centres undefined) | 7.05 µM | 24.8 µM | 6.93 µM | 39.6 µM | 11.2 µM | 25.9 µM | 6.53 µM | 22.2 µM | 10.6 µM | 38.6 µM | 3.78 µM | 21.7 µM | 20.9 µM | 63.1 µM | 4.05 µM | 32.2 µM | 31.4 µM | > 100 µM | 13 µM | 68.8 µM
